# Assay results as given in ChEMBL document CHEMBL5321242, “Design and synthesis of 4-acetoxypentanamide derivatives of spliceostatin A and their biological evaluation towards prostate cancer treatment” (Bioorg Med Chem Lett, 2023).
# Legend:
# [1] = Partition coefficient, logD of the compound; format: physicochemical; details: octanol/water
# [2] = Solubility of the compound in PBS buffer; format: physicochemical
# [3] = Metabolic stability in human liver microsome assessed as parent compound remaining measured at 10 mins; format: ADME; details: liver microsomes, read-out: Stability
# [4] = Metabolic stability in human liver microsome assessed as parent compound remaining measured at 60 mins; format: ADME; details: liver microsomes, read-out: Stability
# [5] = Metabolic stability in mouse liver microsome assessed as parent compound remaining measured at 10 mins; format: ADME; details: liver microsomes, read-out: Stability
# [6] = Metabolic stability in mouse liver microsome assessed as parent compound remaining measured at 60 mins; format: ADME; details: liver microsomes, read-out: Stability
# [7] = Inhibition of AR-V7 expression in human 22Rv1 cells; format: functional, cell-based, CWR22R
# PNT2 = assay: Cytotoxicity against human PNT2 cells assessed as reduction in cell viability upto 200 nM by MTS assay; format: toxicity, cell-based; details: pnt2, 0.2 µM
# [8] = Apparent permeability of the compound by PAMPA assay; format: ADME
Structure (SMILES),Papp [8] [×10⁻⁶ cm/s],logD [1],solubility [2] [µM],remaining at 10 min [3] [%],remaining at 1 h [4] [%],remaining at 10 min [5] [%],remaining at 1 h [6] [%],IC50 [7] [pM],Activity (PNT2)
CO[C@]1(C)C[C@@]2(CO2)[C@H](O)[C@@H](/C=C/C(C)=C/C[C@@H]2O[C@H](C)[C@H](NC(=O)/C=C\[C@H](C)OC(C)=O)C[C@@H]2C)O1,,3.8,≥ 95,32,0.5,2.5,0,600,
CC(=O)O[C@@H](C)/C=C\C(=O)N[C@@H]1C[C@H](C)[C@H](C/C=C(C)/C=C/[C@H]2OCC[C@@]3(CO3)[C@@H]2O)O[C@@H]1C,,3.4,95,1.7,0,0.3,0.1,,
CC(=O)O[C@@H](C)/C=C/C(=O)N[C@@H]1C[C@H](C)[C@H](C/C=C(C)/C=C/[C@H]2OCC[C@@]3(CO3)[C@@H]2O)O[C@@H]1C,11.3,3.2,94.7,0,0,27,0,,
CC(=O)O[C@@H](C)CCC(=O)N[C@@H]1C[C@H](C)[C@H](C/C=C(C)/C=C/[C@H]2OCC[C@@]3(CO3)[C@@H]2O)O[C@@H]1C,8.5,3.1,≥ 95,6,0,5,0,,Non-Toxic

# Further lines, with some results ahead:
Papp [8] [×10⁻⁶ cm/s],Structure (SMILES),logD [1],solubility [2] [µM],remaining at 10 min [3] [%],remaining at 1 h [4] [%],remaining at 10 min [5] [%],remaining at 1 h [6] [%],IC50 [7] [pM],Activity (PNT2)
18.5,CC(=O)O[C@@H](C)/C=C(/C)C(=O)N[C@@H]1C[C@H](C)[C@H](C/C=C(C)/C=C/[C@H]2OCC[C@@]3(CO3)[C@@H]2O)O[C@@H]1C,3.6,≥ 95,1,0,0,0,,Non-Toxic
3.5,CC(C)NCC(O)COc1cccc2ccccc12 (configuration not stated) [PROPRANOLOL],,,,,,,,
